Measurements taken from patent US11566039B2, “Lincosamide antibiotics and uses thereof” (President and Fellows of Harvard College, priority 2017, dated 2023).
In brackets after ≈: the same amount, converted by molar mass. Where two headings read alike, the source gives them in different places.

Assays:
Assay type in all cases: cell-based
E. faecalis ATCC 29212 = experiment: MIC against E. faecalis ATCC 29212; conditions: Enterococcus faecalis, ATCC29212, E. faecalis ATCC 29212; read-out: MIC
E. coli ATCC 25922 = experiment: MIC against E. coli ATCC 25922; conditions: Escherichia coli, ATCC25922, read-out: MIC
[1] = tested on: E. coli MP-74 LptD mutant; experiment: MIC against E. coli MP-74 LptD mutant; conditions: Escherichia coli
S. pyogenes ATCC 19615 = experiment: MIC against S. pyogenes ATCC 19615; conditions: Streptococcus pyogenes, ATCC19615, S. pyogenes ATCC 19615; read-out: MIC
S. aureus ATCC 29213 = experiment: MIC against S. aureus ATCC 29213; conditions: Staphylococcus aureus, ATCC29213, S. aureus ATCC 29213; read-out: MIC
K. pneumoniae ATCC 10031 = experiment: MIC against K. pneumoniae ATCC 10031; conditions: Klebsiella pneumoniae, ATCC10031, read-out: MIC
S. pneumoniae ATCC 49619 = experiment: MIC against S. pneumoniae ATCC 49619; conditions: Streptococcus pneumoniae, ATCC49619, S. pneumoniae ATCC 49619; read-out: MIC
S. aureus BAA 977 iErmA = experiment: MIC against S. aureus BAA 977 iErmA; conditions: Staphylococcus aureus, BAA977
E. coli MP-9 ΔTolC = experiment: MIC against E. coli MP-9 ΔTolC; conditions: Escherichia coli
B. fragilis ATCC 25285 = experiment: MIC against B. fragilis ATCC 25285; conditions: Bacteroides fragilis, ATCC25285
C. difficile BAA 1805 = experiment: MIC against C. difficile BAA 1805; conditions: Clostridioides difficile, BAA1805
[2] = tested on: S. aureus MP-549 msr(a) USA 300; experiment: MIC against S. aureus MP-549 msr(a) USA 300; conditions: Staphylococcus aureus, USA300, S. aureus MP-549 msr(a) USA 300
H. influenzae ATCC 49247 = experiment: MIC against H. influenzae ATCC 49247; conditions: Haemophilus influenzae, ATCC49247, H. influenzae ATCC 49247; read-out: MIC
[3] = tested on: S. pneumoniae MMX 3028 cErmB; experiment: MIC against S. pneumoniae MMX 3028 cErmB; conditions: Streptococcus pneumoniae, MMX3028CERMB
[4] = tested on: S. pneumoniae MMX 3031 cMefA; experiment: MIC against S. pneumoniae MMX 3031 cMefA; conditions: Streptococcus pneumoniae, MMX3031CMEFA
S. aureus MMX 3035 cErmA = experiment: MIC against S. aureus MMX 3035 cErmA; conditions: Staphylococcus aureus, MMX3035CERMA
[5] = tested on: S. pyogenes MMX 946 Macrolide-Resistant; experiment: MIC against S. pyogenes MMX 946 Macrolide-Resistant; conditions: Streptococcus pyogenes
[6] = tested on: E. faecalis MMX 847 MacRes; experiment: MIC against E. faecalis MMX 847 MacRes; conditions: Enterococcus faecalis, MMX847MACRES
[7] = S. pneumoniae MMX 3028 cErmB, read-out: MIC
[8] = S. pyogenes MMX 946 Macrolide-Resistant (MacRes), read-out: MIC

Structure (SMILES) | MIC (E. faecalis ATCC 29212) [µg/mL] | MIC (E. coli ATCC 25922) [µg/mL] | MIC [1] [µg/mL] | MIC (S. pyogenes ATCC 19615) [µg/mL] | MIC (S. aureus ATCC 29213) [µg/mL] | MIC (K. pneumoniae ATCC 10031) [µg/mL] | MIC (S. pneumoniae ATCC 49619) [µg/mL] | MIC (S. aureus BAA 977 iErmA) [µg/mL] | MIC (E. coli MP-9 ΔTolC) [µg/mL] | MIC (B. fragilis ATCC 25285) [µg/mL] | MIC (C. difficile BAA 1805) [µg/mL] | MIC [2] [µg/mL] | MIC (H. influenzae ATCC 49247) [µg/mL] | MIC [3, 7] [µg/mL] | MIC [4] [µg/mL] | MIC (S. aureus MMX 3035 cErmA) [µg/mL] | MIC [5, 8] [µg/mL] | MIC [6] [µg/mL] | MIC [3] [µg/mL] | MIC [5] [µg/mL]
CCC[C@@H]1C[C@@H](C(=O)N[C@H]([C@H](C)NC(=N)N)[C@H]2OC(SC)[C@H](O)C(O)C2O)N(C)C1 (stereo partly drawn) [FSA-215059] | > 64 | > 64 | > 64 | 4 (≈ 8.94 µM) | 32 (≈ 71.5 µM) | > 64 | 8 (≈ 17.9 µM) | 32 (≈ 71.5 µM) | > 64 | – | – | – | – | – | – | – | – | – | – | –
CCC[C@@H]1C[C@@H](C(=O)N[C@H]([C@H](C)NC(=O)CNC)[C@H]2OC(SC)[C@H](O)C(O)C2O)N(C)C1 (stereo partly drawn) [FSA-215078a] | > 64 | > 64 | > 64 | 8 (≈ 16.8 µM) | > 64 | > 64 | 16 (≈ 33.6 µM) | > 64 | > 64 | > 64 | > 64 | > 64 | > 64 | – | – | – | – | – | – | –
CCC[C@@H]1C[C@@H](C(=O)N[C@H]([C@H](C)NC(=O)CN(C)C)[C@H]2OC(SC)[C@H](O)C(O)C2O)N(C)C1 (stereo partly drawn) [FSA-215078b] | > 64 | > 64 | > 64 | 8 (≈ 16.3 µM) | > 64 | > 64 | 8 (≈ 16.3 µM) | > 64 | > 64 | – | > 64 | > 64 | > 64 | – | – | – | – | – | – | –
CCC[C@@H]1C[C@@H](C(=O)N[C@@H]([C@H]2OC(SC)[C@H](O)C(O)C2O)[C@H](C)N(C)C)N(C)C1 (stereo partly drawn) [FSA-215070] | > 64 | > 64 | > 64 | 32 (≈ 73.8 µM) | 64 (≈ 148 µM) | > 64 | 16 (≈ 36.9 µM) | 64 (≈ 148 µM) | > 64 | – | > 64 | 64 (≈ 148 µM) | > 64 | – | – | – | – | – | – | –
CCC[C@@H]1C[C@@H](C(=O)N[C@H](CN=[N+]=[N-])[C@H]2OC(SC)[C@H](O)C(O)C2O)N(C)C1 (stereo partly drawn) [FSA-215003] | 32 (≈ 76.6 µM) | > 64 | – | 2 (≈ 4.79 µM) | 8 (≈ 19.2 µM) | – | 4 (≈ 9.58 µM) | – | 4 (≈ 9.58 µM) | – | – | 0.125 (≈ 0.299 µM) | – | > 64 | 0.125 (≈ 0.299 µM) | > 64 | > 64 | > 64 | – | –
CCC[C@@H]1C[C@@H](C(=O)N[C@H]([C@H](C)NC(=O)CN)[C@H]2OC(SC)[C@H](O)C(O)C2O)N(C)C1 (stereo partly drawn) [FSA-215071] | > 64 | > 64 | > 64 | 16 (≈ 34.6 µM) | > 64 | > 64 | 8 (≈ 17.3 µM) | > 64 | > 64 | – | > 64 | > 64 | > 64 | – | – | – | – | – | – | –
CCC[C@@H]1C[C@@H](C(=O)N[C@@H]([C@H]2OC(SC)[C@H](O)C(O)C2O)[C@H](C)n2ccnc2)N(C)C1 (stereo partly drawn) [FSA-215064] | > 64 | > 64 | > 64 | 8 (≈ 17.5 µM) | 64 (≈ 140 µM) | > 64 | 16 (≈ 35 µM) | > 64 | > 64 | – | – | – | – | – | – | – | – | – | – | –
CCC[C@@H]1C[C@@H](C(=O)N[C@H](CN)[C@H]2OC(SC)[C@H](O)C(O)C2O)N(C)C1 (stereo partly drawn) [FSA-215077] | > 64 | > 64 | > 64 | > 64 | > 64 | > 64 | > 64 | > 64 | > 64 | – | – | > 64 | > 64 | – | – | – | – | – | – | –
CCC[C@@H]1C[C@@H](C(=O)N[C@@H]([C@H]2OC(SC)[C@H](O)C(O)C2O)[C@H](C)n2cc(CN)nn2)N(C)C1 (stereo partly drawn) [FSA-215072] | > 64 | > 64 | > 64 | 8 (≈ 16.4 µM) | > 64 | > 64 | 8 (≈ 16.4 µM) | > 64 | > 64 | – | – | – | – | – | – | – | – | – | – | –
CCC[C@@H]1C[C@@H](C(=O)N[C@@H]([C@H]2OC(SC)[C@H](O)C(O)C2O)[C@H](C)N(C)Cc2ccccc2[N+](=O)[O-])N(C)C1 (stereo partly drawn) [FSA-215081] | > 64 | > 64 | > 64 | 1 (≈ 1.8 µM) | 4 (≈ 7.21 µM) | > 64 | 2 (≈ 3.61 µM) | 4 (≈ 7.21 µM) | > 64 | – | – | 4 (≈ 7.21 µM) | > 64 | – | – | – | – | – | – | –
CCC[C@@H]1C[C@@H](C(=O)N[C@@H]([C@H]2O[C@H](SC)[C@H](O)[C@@H](O)[C@H]2O)[C@H](C)Cl)N(C)C1 [Clindamycin, clindamycin, reference compound] | 16 (≈ 37.6 µM) | – | 2 (≈ 4.71 µM) | 0.06 (≈ 0.141 µM) | – | 8 (≈ 18.8 µM) | 0.12 (≈ 0.282 µM) | – | 8 (≈ 18.8 µM) | 0.5 (≈ 1.18 µM) | 8 (≈ 18.8 µM) | 0.125 (≈ 0.294 µM) | 16 (≈ 37.6 µM) | – | 0.06 (≈ 0.141 µM) | – | – | – | > 64 | > 64
CCC[C@@H]1C[C@@H](C(=O)N[C@H]([C@H](C)NC2CC2)[C@H]2OC(SC)[C@H](O)C(O)C2O)N(C)C1 (stereo partly drawn) [FSA-215028c] | > 64 | > 64 | – | 8 (≈ 18 µM) | 64 (≈ 144 µM) | > 64 | 16 (≈ 35.9 µM) | 32 (≈ 71.8 µM) | > 64 | – | – | – | – | – | – | – | – | – | – | –
CCC[C@@H]1C[C@@H](C(=O)N[C@H](CNc2ccc(-c3cccnc3)cc2)[C@H]2OC(SC)[C@H](O)C(O)C2O)N(C)C1 (stereo partly drawn) [FSA-214087] | > 64 | > 64 | – | 8 (≈ 14.7 µM) | 32 (≈ 58.7 µM) | – | 8 (≈ 14.7 µM) | – | > 64 | – | – | 32 (≈ 58.7 µM) | – | > 64 | 32 (≈ 58.7 µM) | > 64 | > 64 | > 64 | – | –
CCC[C@@H]1C[C@@H](C(=O)N[C@H]([C@H](C)N)[C@H]2OC(SC)[C@H](O)C(O)C2O)N(C)C1 (stereo partly drawn) [FSA-215049, 7-(S)-deoxyaminolincomycin] | > 64 | > 64 | > 64 | 16 (≈ 39.5 µM) | 64 (≈ 158 µM) | > 64 | 8 (≈ 19.7 µM) | 64 (≈ 158 µM) | > 64 | – | > 64 | 32 (≈ 78.9 µM) | > 64 | – | – | – | – | – | – | –
CCC[C@@H]1C[C@@H](C(=O)N[C@H]([C@H](C)NC)[C@H]2OC(SC)[C@H](O)C(O)C2O)N(C)C1 (stereo partly drawn) [FSA-215082] | > 64 | > 64 | > 64 | 32 (≈ 76.3 µM) | 64 (≈ 153 µM) | > 64 | 16 (≈ 38.1 µM) | 64 (≈ 153 µM) | > 64 | > 64 | > 64 | > 64 | > 64 | – | – | – | – | – | – | –
